Reference: patent US20240398825A1 (NANJING DELOVA BIOTECH CO. LTD., priority 2018, published 2024)
In brackets after ≈: the same amount, converted by molar mass.

Legend:
[1] = Solubility of meloxicam in organic base or alkaline amino acid solutions (Comparative Example A4); type: physicochemical; details: for solubility at 24 h: 25 °C, shaking at 25° C. for 24 h, n = 3
[2] = Solubility study of meloxicam in injectable solution; type: physicochemical; details: aqueous with cosolvent or surfactant or cyclodextrin; PEG 400 300 mg/mL, pH 7.7-8.0 (NaOH/citric acid)
[3] = Solubility of meloxicam in PEG 200, PEG300 or PEG600; type: physicochemical; details: 25 °C, organic solvent or mixture, thermodynamic from solid, read-out: Solubility (shaking at 25° C. for 24 h)
[4] = cited from earlier work
[5] = cited from earlier work; remark: listed apart in the source
physchem = details: 25 °C, water, thermodynamic from solid

For Cc1cnc(NC(=O)C2=C(O)c3ccccc3S(=O)(=O)N2C)s1 [Meloxicam, 4-hydroxy-2-methyl-N-(5-methyl-2-thiazolyl)-2H-1,2-benzothiazine-3-carboxamide-1,1-dioxide], which solubility at 24 h ([1]; Tris solution, aqueous buffer, thermodynamic from solid, Tris 5 mg/mL) is on record?
Its solubility at 24 h is 5.54 mg/mL (≈ 15.8 mM).

And the solubility at 24 h ([1]; Tris solution, aqueous buffer, thermodynamic from solid, Tris 10 mg/mL)?
The solubility at 24 h was 9.07 mg/mL (≈ 25.8 mM).

And the solubility at 24 h ([1]; Tris solution, aqueous buffer, thermodynamic from solid, Tris 15 mg/mL)?
The solubility at 24 h was 11.4 mg/mL (≈ 32.4 mM).

What about the solubility at 24 h ([1]; Tris solution, aqueous buffer, thermodynamic from solid, Tris 20 mg/mL) of the same compound?
Its solubility at 24 h is 14.3 mg/mL (≈ 40.6 mM).

And the solubility at 24 h ([1]; Tris solution, aqueous buffer, thermodynamic from solid, Tris 30 mg/mL)?
The solubility at 24 h was 18.3 mg/mL (≈ 52.1 mM).

What about the “stability of the solutions in organic base or basic amino acid” value ([1]; after standing overnight at room temperature) of the same compound?
The value was “Crystals were precipitated”.

And the solubility at 24 h ([1]; arginine solution, aqueous buffer, thermodynamic from solid, Arginine 7 mg/mL)?
The solubility at 24 h was 11.2 mg/mL (≈ 32 mM).

What about the solubility at 24 h ([1]; arginine solution, aqueous buffer, thermodynamic from solid, Arginine 14 mg/mL) of the same compound?
Its solubility at 24 h is 11.6 mg/mL (≈ 32.9 mM).

What about the solubility at 24 h ([1]; arginine solution, aqueous buffer, thermodynamic from solid, Arginine 20 mg/mL) of the same compound?
The solubility at 24 h was 11.6 mg/mL (≈ 33 mM).

What about the solubility at 24 h ([1]; arginine solution, aqueous buffer, thermodynamic from solid, Arginine 30 mg/mL) of the same compound?
The solubility at 24 h was 12.8 mg/mL (≈ 36.4 mM).

And the solubility at 24 h ([1]; arginine solution, aqueous buffer, thermodynamic from solid, Arginine 40 mg/mL)?
Its solubility at 24 h is 14.2 mg/mL (≈ 40.5 mM).

What about the solubility ([1]; high concentration organic base or basic amino acid solution, aqueous buffer, thermodynamic from solid, solubility of meloxicam in a high concentration organic base or basic amino acid, high concentration organic base or basic amino acid) of the same compound?
Its solubility is ≥ 10 mg/mL.

What about the solubility at 24 h ([1]; lysine solution, aqueous buffer, thermodynamic from solid, Lysine 6 mg/mL) of the same compound?
Its solubility at 24 h is 10.5 mg/mL (≈ 29.7 mM).

What about the solubility at 24 h ([1]; lysine solution, aqueous buffer, thermodynamic from solid, Lysine 19 mg/mL) of the same compound?
The solubility at 24 h was 29.8 mg/mL (≈ 84.7 mM).

And the solubility at 24 h ([1]; lysine solution, aqueous buffer, thermodynamic from solid, Lysine 24 mg/mL)?
Its solubility at 24 h is 35.9 mg/mL (≈ 102 mM).

And the solubility at 24 h ([1]; meglumine solution, aqueous buffer, thermodynamic from solid, Meglumine 5 mg/mL)?
Its solubility at 24 h is 8.01 mg/mL (≈ 22.8 mM).

What about the solubility at 24 h ([1]; meglumine solution, aqueous buffer, thermodynamic from solid, Meglumine 10 mg/mL) of the same compound?
Its solubility at 24 h is 17.8 mg/mL (≈ 50.7 mM).

What about the solubility at 24 h ([1]; meglumine solution, aqueous buffer, thermodynamic from solid, Meglumine 15 mg/mL) of the same compound?
Its solubility at 24 h is 24.6 mg/mL (≈ 70.1 mM).

What about the solubility [2] of the same compound?
Its solubility is 60 mg/mL (≈ 171 mM).

What about the solubility at 24 h ([3]; Cosolvent PEG200) of the same compound?
The solubility at 24 h was 3.6 mg/mL (≈ 10.2 mM).

What about the solubility at 24 h ([3]; Cosolvent PEG300) of the same compound?
The solubility at 24 h was 2.81 mg/mL (≈ 8 mM).

What about the solubility at 24 h ([3]; Cosolvent PEG600) of the same compound?
Its solubility at 24 h is 3.18 mg/mL (≈ 9.05 mM).

What about the solubility in water ([4]; 25° C.) of the same compound?
The solubility in water was 0.003414 mg/mL (≈ 0.00972 mM).

And the “solubility in chloroform, acetone and ethanol” value [4]?
The value was “slightly soluble”.

And the “maximum solubility in pure PEG 400” value ([5]; Zaira J. Cárdenas et al.)?
Its value is 9.2 mg/mL.

What about the “solubility of meloxicam in pure PEG 400” value ([5]; found by Neelam Seeder et al.) of the same compound?
Its value is 3.763 mg/mL.

And the solubility at 24 h (physchem)?
Its solubility at 24 h is 0.02 mg/mL (≈ 0.0569 mM).
